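Grown in 96-well plates, cells were treated for 48 hours with each compound at five concentrations. Insufficient inhibition: endpoint recorded as highest concentration tested. Here, GI50 denotes the concentration required for 50% inhibition of growth.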 The source made the active and inactive calls. Cut-off read from the data, not from the text of the source: active = GI50 up to about 1.1 µM and inactive = higher.
Tests used:
Experiment in all cases: NCI-60 cell line screen, 48 h
[1] = test system: A549
[2] = test system: EKVX
[3] = test system: HCT-15
[4] = test system: HL-60
[5] = test system: K562
[6] = test system: KM12
[7] = test system: MOLT-4
[8] = test system: OVCAR-3
[9] = test system: OVCAR-5
[10] = test system: SF-268
[11] = test system: SK-MEL-28
[12] = test system: SR
[13] = test system: UACC-257
[14] = test system: HOP-92
[15] = test system: HT-29
[16] = test system: A498

Structure (SMILES)	GI50 [1]	GI50 [2]	GI50 [3] [µM]	GI50 [4]	GI50 [5]	GI50 [6]	GI50 [7]	GI50 [8]	GI50 [9]	GI50 [10]	GI50 [11]	GI50 [12]	GI50 [13]	GI50 [14]	GI50 [15]	GI50 [16]
Nc1nc(N)c(N=O)c(Nc2ccc(I)cc2)n1	65.8 µM (inactive)	> 100 µM (inactive)	12.2	6.53 µM (inactive)	14.1 µM (inactive)	18.5 µM (inactive)	3.98 µM (inactive)	13.2 µM (inactive)	19.2 µM (inactive)	13.9 µM (inactive)	14 µM (inactive)	10.8 µM (inactive)	19.5 µM (inactive)	–	–	–
COC(=O)C(=O)C(C#N)c1ccc(Cl)c(Cl)c1 (centres undefined)	> 100 µM (inactive)	64.3 µM (inactive)	> 100	> 100 µM (inactive)	> 100 µM (inactive)	> 100 µM (inactive)	> 100 µM (inactive)	> 100 µM (inactive)	–	> 100 µM (inactive)	> 100 µM (inactive)	> 100 µM (inactive)	> 100 µM (inactive)	> 100 µM (inactive)	> 100 µM (inactive)	–
Cc1ccc(NC(=O)c2nc(S)nc(N)c2-c2ccccc2C)cc1C	> 100 µM (inactive)	> 100 µM (inactive)	> 100	–	> 100 µM (inactive)	> 100 µM (inactive)	> 100 µM (inactive)	> 100 µM (inactive)	> 100 µM (inactive)	> 100 µM (inactive)	> 100 µM (inactive)	–	> 100 µM (inactive)	> 100 µM (inactive)	> 100 µM (inactive)	> 100 µM (inactive)
Cn1c(=O)c(C2c3ccccc3Oc3c2c(=O)n(C)c2ccccc32)c(O)c2ccccc21 (centres undefined)	72.6 µM (inactive)	41.2 µM (inactive)	32.4	30.1 µM (inactive)	51.2 µM (inactive)	69.8 µM (inactive)	39.4 µM (inactive)	52 µM (inactive)	> 100 µM (inactive)	66.4 µM (inactive)	86.9 µM (inactive)	42.1 µM (inactive)	24.1 µM (inactive)	42.9 µM (inactive)	92.7 µM (inactive)	–
CC1CCC23COC(=O)C2C(O)CCC3C1(C)CC(O)c1ccoc1 (centres undefined)	> 100 µM (inactive)	> 100 µM (inactive)	> 100	–	> 100 µM (inactive)	> 100 µM (inactive)	> 100 µM (inactive)	> 100 µM (inactive)	> 100 µM (inactive)	> 100 µM (inactive)	> 100 µM (inactive)	–	> 100 µM (inactive)	> 100 µM (inactive)	> 100 µM (inactive)	> 100 µM (inactive)
N#CC1([N+](=O)[O-])C=C1c1ccccc1 (centres undefined)	> 100 µM (inactive)	> 100 µM (inactive)	36.7	23.3 µM (inactive)	23.2 µM (inactive)	> 100 µM (inactive)	22.7 µM (inactive)	> 100 µM (inactive)	> 100 µM (inactive)	53.7 µM (inactive)	–	25.2 µM (inactive)	78 µM (inactive)	–	35.9 µM (inactive)	–
Cc1nc(=O)n2c(C)n[nH]c2c1C(=O)Nc1cc(Cl)cc(Cl)c1	19.2 µM (inactive)	31.1 µM (inactive)	19.3	20.1 µM (inactive)	23.8 µM (inactive)	31.9 µM (inactive)	26.9 µM (inactive)	14.2 µM (inactive)	65.3 µM (inactive)	33.3 µM (inactive)	26.1 µM (inactive)	19.9 µM (inactive)	–	17.5 µM (inactive)	31.3 µM (inactive)	–
COc1cccc2c1C(=O)c1c(O)c3c(c(O)c1C2=O)C[C@@](O)(C(=O)CO)CC3OC1CC(N(C)CCOCC(OC(C)=O)OC(C)=O)C(O)C(C)O1 (some centres undefined)	> 0.01 µM (active)	> 0.01 µM (active)	–	> 0.01 µM (active)	> 0.01 µM (active)	> 0.01 µM (active)	> 0.01 µM (active)	> 0.01 µM (active)	> 0.01 µM (active)	> 0.01 µM (active)	> 0.01 µM (active)	–	> 0.01 µM (active)	> 0.01 µM (active)	> 0.01 µM (active)	–
O=C(CC(=O)N1N=C(n2ccc3ccccc32)CC1c1ccccc1)Nc1ccc(Cl)cc1 (centres undefined)	> 100 µM (inactive)	> 100 µM (inactive)	> 100	> 100 µM (inactive)	> 100 µM (inactive)	> 100 µM (inactive)	8.39 µM (inactive)	> 100 µM (inactive)	> 100 µM (inactive)	> 100 µM (inactive)	> 100 µM (inactive)	–	> 100 µM (inactive)	77.6 µM (inactive)	> 100 µM (inactive)	> 100 µM (inactive)
c1ccc2c(c1)CCc1c(-c3ccncc3)n[nH]c1-2	30.8 µM (inactive)	6.14 µM (inactive)	32.1	34.3 µM (inactive)	48.2 µM (inactive)	21.8 µM (inactive)	36 µM (inactive)	16.7 µM (inactive)	32.7 µM (inactive)	28.8 µM (inactive)	23.8 µM (inactive)	27.8 µM (inactive)	25.6 µM (inactive)	–	44.6 µM (inactive)	25.9 µM (inactive)
CCCCCCCCCc1cc(=O)c2ccc(OCc3ccccc3)cc2o1	70.8 µM (inactive)	> 100 µM (inactive)	> 100	14.5 µM (inactive)	> 100 µM (inactive)	> 100 µM (inactive)	–	> 100 µM (inactive)	> 100 µM (inactive)	> 100 µM (inactive)	> 100 µM (inactive)	–	> 100 µM (inactive)	> 100 µM (inactive)	> 100 µM (inactive)	–
NC(CCSCC(F)(F)F)C(=O)O (centres undefined)	> 100 µM (inactive)	> 100 µM (inactive)	> 100	> 100 µM (inactive)	> 100 µM (inactive)	> 100 µM (inactive)	> 100 µM (inactive)	> 100 µM (inactive)	> 100 µM (inactive)	> 100 µM (inactive)	> 100 µM (inactive)	> 100 µM (inactive)	> 100 µM (inactive)	> 100 µM (inactive)	> 100 µM (inactive)	> 100 µM (inactive)
O=C(CC(=O)c1ccccc1)C(=O)Nc1ccc(Cl)cc1	> 94.6 µM (inactive)	> 100 µM (inactive)	> 42.9	> 100 µM (inactive)	> 85.5 µM (inactive)	> 100 µM (inactive)	> 100 µM (inactive)	> 100 µM (inactive)	> 100 µM (inactive)	> 100 µM (inactive)	> 100 µM (inactive)	> 100 µM (inactive)	> 61.5 µM (inactive)	> 100 µM (inactive)	> 42.8 µM (inactive)	> 100 µM (inactive)
O=C(/C=C/c1ccccc1F)c1ccc(Cl)c(Cl)c1	64 µM (inactive)	> 100 µM (inactive)	37.1	18.9 µM (inactive)	20.5 µM (inactive)	19.9 µM (inactive)	27.4 µM (inactive)	> 44.8 µM (inactive)	> 87.1 µM (inactive)	38.3 µM (inactive)	> 53.1 µM (inactive)	33.3 µM (inactive)	49.4 µM (inactive)	> 100 µM (inactive)	27.3 µM (inactive)	> 39.1 µM (inactive)
O=C1C(O)=C(CCCc2ccc(Oc3ccccc3)cc2)C(=O)c2ccccc21	–	11.6 µM (inactive)	4.28	7.94 µM (inactive)	5.78 µM (inactive)	15.1 µM (inactive)	4.19 µM (inactive)	6.53 µM (inactive)	41.1 µM (inactive)	7.64 µM (inactive)	17.9 µM (inactive)	15.2 µM (inactive)	4.32 µM (inactive)	12.9 µM (inactive)	30.9 µM (inactive)	10.3 µM (inactive)
CC(O)(c1ccc(OCCC[N+](C)(C)C)cc1)C(C)(O)c1ccc(OCCC[N+](C)(C)C)cc1 (centres undefined)	> 100 µM (inactive)	> 100 µM (inactive)	> 100	> 100 µM (inactive)	> 100 µM (inactive)	> 100 µM (inactive)	–	> 100 µM (inactive)	> 100 µM (inactive)	> 100 µM (inactive)	> 100 µM (inactive)	–	> 100 µM (inactive)	> 100 µM (inactive)	> 100 µM (inactive)	> 100 µM (inactive)
CC(C)(C)c1cc(CCC(=O)Nc2ccc(Cl)cc2Cl)nc(N)n1	> 100 µM (inactive)	> 100 µM (inactive)	> 100	> 100 µM (inactive)	> 100 µM (inactive)	> 100 µM (inactive)	> 100 µM (inactive)	> 100 µM (inactive)	> 100 µM (inactive)	> 100 µM (inactive)	> 100 µM (inactive)	> 100 µM (inactive)	> 100 µM (inactive)	91.6 µM (inactive)	> 100 µM (inactive)	–
COc1cc(C2Oc3cc(-c4oc5cc(O)cc(O)c5c(=O)c4O)ccc3OC2CO)ccc1O (centres undefined) [DEHYDROSILYLBIN]	9.14 µM (inactive)	–	9.31	9.48 µM (inactive)	11 µM (inactive)	20.1 µM (inactive)	3.9 µM (inactive)	21.5 µM (inactive)	–	7.46 µM (inactive)	10.1 µM (inactive)	4.61 µM (inactive)	32 µM (inactive)	10.5 µM (inactive)	25.9 µM (inactive)	9.27 µM (inactive)
COc1cc(C2c3cc4c(cc3[C@@H](N(C)C)[C@H]3COC(=O)C23)OCO4)cc(OC)c1O (some centres undefined)	45.9 µM (inactive)	64.4 µM (inactive)	31.1	33.4 µM (inactive)	27.3 µM (inactive)	38.2 µM (inactive)	38.2 µM (inactive)	–	> 100 µM (inactive)	46.7 µM (inactive)	14.5 µM (inactive)	54.5 µM (inactive)	67.9 µM (inactive)	11.2 µM (inactive)	34.4 µM (inactive)	23.3 µM (inactive)
